Biological target: T1, SARM1 (50-724) (Homo sapiens, UniProt Q6SZW1)
T1 construct: Purified SARM1 (50-724) with a final concentration of 2 nM
T1 sequence (Q6SZW1 50-724): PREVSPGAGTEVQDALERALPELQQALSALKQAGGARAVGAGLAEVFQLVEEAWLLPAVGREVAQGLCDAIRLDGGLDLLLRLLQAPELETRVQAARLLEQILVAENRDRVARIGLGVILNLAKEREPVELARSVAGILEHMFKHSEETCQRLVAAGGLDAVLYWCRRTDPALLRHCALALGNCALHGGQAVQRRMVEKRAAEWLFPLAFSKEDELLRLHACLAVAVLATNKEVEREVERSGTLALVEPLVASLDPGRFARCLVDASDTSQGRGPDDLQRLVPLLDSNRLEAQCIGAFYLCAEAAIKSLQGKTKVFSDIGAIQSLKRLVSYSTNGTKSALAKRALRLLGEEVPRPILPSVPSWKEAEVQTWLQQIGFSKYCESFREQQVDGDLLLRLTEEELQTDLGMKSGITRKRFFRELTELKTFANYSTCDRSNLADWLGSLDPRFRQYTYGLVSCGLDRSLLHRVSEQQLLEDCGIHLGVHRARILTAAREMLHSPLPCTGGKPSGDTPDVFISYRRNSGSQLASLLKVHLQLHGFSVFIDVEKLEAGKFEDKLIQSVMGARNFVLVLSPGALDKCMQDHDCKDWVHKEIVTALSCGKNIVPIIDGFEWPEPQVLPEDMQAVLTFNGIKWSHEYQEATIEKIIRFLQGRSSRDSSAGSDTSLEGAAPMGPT
Assay: SARM1 (50-724) enzymatic assay (NMN-activated NAD+ hydrolysis, LC-MS/MS readout)
Assay type: biochemical
Conditions: purified SARM1 (50-724) 2 nM, 200 μM NMN activator, 100 μM NAD+ substrate, 1 h at room temperature, read-out: IC50 (SARM1 inhibitory activity)
Description: Example II. SARM1 (50-724) Enzymatic Assay
An enzymatic assay was performed in a 384-well plate using Dulbecco's phosphate-buffered saline (PBS) as the reaction buffer. Purified SARM1 (50-724) with a final concentration of 2 nM was pre-incubated with a test compound at 1% DMSO final assay concentration for 15 min at room temperature. The reaction was initiated by adding a mixture of 200 μM nicotinamide mononucleotide (NMN) as activator and 100 μM NAD^+ as substrate. After 1 h of incubation at room temperature, the reaction was terminated with 10 times volume of 70% acetonitrile, then centrifuged at 3800 rpm for 10 min. The samples were analyzed using LC-MS/MS after diluted to a proper concentration by 10 mM ammonium acetate (pH 9.75).
ND means “not determined.”

Compound	IC50 [nM]
Cc1ccc2[nH]c(C(=O)N(C)c3cccnc3)c(CO)c2c1 [Compound 22, 3-(hydroxymethyl)-N,5-dimethyl-N-(pyridin-3-yl)-1H-indole-2-carboxamide]	≥ 1000
Cc1ccc2c(CO)c(C(=O)N(C)C3CCCC3)n(CC(N)=O)c2c1 [Compound 23, 1-(2-amino-2-oxoethyl)-N-cyclopentyl-3-(hydroxymethyl)-N,6-dimethyl-1H-indole-2-carboxamide]	≥ 1000
Cc1ccc2[nH]c(C(=O)N(C)c3cccc(Cl)c3)c(CO)c2c1 [Compound 24, N-(3-chlorophenyl)-3-(hydroxymethyl)-N,5-dimethyl-1H-indole-2-carboxamide]	≥ 1000
Cc1ccc2[nH]c(C(=O)N(C)c3ccc(Cl)cc3)c(CO)c2c1 [Compound 25, N-(4-chlorophenyl)-3-(hydroxymethyl)-N,5-dimethyl-1H-indole-2-carboxamide]	≥ 1000
Cc1ccc2[nH]c(C(=O)NC3CCCC3)c(CO)c2c1 [Compound 26, N-cyclopenty1-3-(hydroxymethyl)-5-methyl-1H-indole-2-carboxamide]	≥ 1000
CC(C)c1ccc2[nH]c(C(=O)N(C)C3CCCC3)c(CO)c2c1 [Compound 27, N-cyclopenty1-3-(hydroxymethyl)-5-isopropyl-N-methyl-1H-indole-2-carboxamide]	101 to 500
CN(C(=O)c1[nH]c2ccc(C(F)(F)F)cc2c1CO)C1CCCC1 [Compound 28, N-cyclopentyl-3-(hydroxymethyl)-N-methyl-5-(trifluoromethyl)-1H-indole-2-carboxamide]	101 to 500
COc1ccc2c(CO)c(C(=O)N(C)C3CCCC3)[nH]c2c1 [Compound 29, N-cyclopentyl-3-(hydroxymethyl)-6-methoxy-N-methyl-1H-indole-2-carboxamide]	≥ 1000
COc1cc2[nH]c(C(=O)N(C)C3CCCC3)c(CO)c2cc1OC [Compound 30, N-cyclopentyl-3-(hydroxymethyl)-5,6-dimethoxy-N-methyl-1H-indole-2-carboxamide]	≥ 1000
CN(C(=O)c1[nH]c2cc(Cl)cc(Cl)c2c1CO)C1CCCC1 [Compound 31, 4,6-dichloro-N-cyclopentyl-3-(hydroxymethyl)-N-methyl-1H-indole-2-carboxamide]	≥ 1000
CN(C(=O)c1[nH]c2ccc(F)cc2c1CO)C1CCCC1 [Compound 32, N-cyclopentyl-5-fluoro-3-(hydroxymethyl)-N-methyl-1H-indole-2-carboxamide]	≥ 1000
CN(C(=O)c1[nH]ncc1CO)C1CCCC1 [Compound 33, N-cyclopentyl-4-(hydroxymethyl)-N-methyl-1H-pyrazole-5-carboxamide]	≥ 1000
COc1cc(OC)c2c(CO)c(C(=O)N(C)C3CCCC3)[nH]c2c1 [Compound 34, N-cyclopentyl-3-(hydroxymethyl)-4,6-dimethoxy-N-methyl-1H-indole-2-carboxamide]	≥ 1000
Cc1ccc2[nH]c(C(=O)N(C)C3CCCC(C)C3C)c(CO)c2c1 (stereo not shown) [Compound 35, N-(2,3-dimethylcyclohexyl)-3-(hydroxymethyl)-N,5-dimethyl-1H-indole-2-carboxamide]	≥ 1000
Cc1ccc2[nH]c(C(=O)N(C)C3CCCC3)c(CCO)c2c1 [Compound 36, N-cyclopentyl-3-(2-hydroxyethyl)-N,5-dimethyl-1H-indole-2-carboxamide]	101 to 500
COCCc1c(C(=O)N(C)C2CCCC2)[nH]c2ccc(C)cc12 [Compound 37, N-cyclopenty1-3-(2-methoxyethyl)-N,5-dimethyl-1H-indole-2-carboxamide]	101 to 500
Cc1cnc2[nH]c(C(=O)N(C)C3CCCC3)c(CO)c2c1 [Compound 38, N-cyclopentyl-3-(hydroxymethyl)-N,5-dimethyl-1H-pyrrolo[2,3-b]pyridine-2-carboxamide]	≥ 1000
Cc1cccc2c(CO)c(C(=O)N(C)C3CCCC3)[nH]c12 [Compound 39, N-cyclopentyl-3-(hydroxymethyl)-N,7-dimethyl-1H-indole-2-carboxamide]	≥ 1000
CN(C(=O)c1[nH]c2cc(Br)ccc2c1CO)C1CCCC1 [Compound 40, 6-bromo-N-cyclopentyl-3-(hydroxymethyl)-N-methyl-1H-indole-2-carboxamidc]	≥ 1000
CN(C(=O)c1[nH]c2cc(Cl)ccc2c1CO)C1CCCC1 [Compound 41, 6-chloro-N-cyclopentyl-3-(hydroxymethyl)-N-methyl-1H-indole-2-carboxamide]	≥ 1000

Compound	IC50 [nM]
Cc1ccc2[nH]c(C(=O)N(C)C3C[C@@H](C)O[C@@H](C)C3)c(CO)c2c1 (stereo partly drawn) [Compound 42, N-((2R,6S)-2,6-dimethyltetrahydro-2H-pyran-4-yl)-3-(hydroxymethyl)-N,5-dimethyl-1H-indole-2-carboxamide]	≥ 1000
Cc1cccc(N(C)C(=O)c2[nH]c3ccc(C)cc3c2CO)c1 [Compound 43, 3-(hydroxymethyl)-N,5-dimethyl-N-(m-tolyl)-1H-indole-2-carboxamidc]	≥ 1000
Cc1ccc(N(C)C(=O)c2[nH]c3ccc(C)cc3c2CO)cc1 [Compound 44, 3-(hydroxymethyl)-N,5-dimethyl-N-(p-tolyl)-1H-indole-2-carboxamide]	≥ 1000
CN(C(=O)c1[nH]ccc1CO)C1CCCC1 [Compound 45, N-cyclopentyl-3-(hydroxymethyl)-N-mcthyl-1H-pyrrole-2-carboxamide]	≥ 1000
Cc1ccc2[nH]c(C(=O)N(C)C3CCCC3)nc2c1 [Compound 46, N-cyclopentyl-N,5-dimethyl-1H-benzo[d]imidazole-2-carboxamide]	101 to 500
Cc1ccc2[nH]c(C(=O)N(C)C3CCCCC3)nc2c1 [Compound 47, N-cyclohexyl-N,5-dimethyl-1H-benzo[d]imidazole-2-carboxamide]	101 to 500
CN(C(=O)c1nc2cc(C(F)(F)F)ccc2[nH]1)C1CCCC1 [Compound 48, N-cyclopentyl-N-methyl-5-(trifluoromethyl)-1H-benzo[d]imidazole-2-carboxamide]	≤ 100
Cc1ccc2[nH]c(C(=O)N(CCO)C3CCCC3)nc2c1 [Compound 49, N-cyclopentyl-N-(2-hydroxyethyl)-5-methyl-1H-benzo[d]imidazole-2-carboxamide]	101 to 500
Cc1ccc2[nH]c(C(=O)N(CCO)c3cccc(Cl)c3Cl)nc2c1 [Compound 50, N-(2,3-dichlorophenyl)-N-(2-hydroxyethyl)-5-methyl-1H-benzo[d]imidazole-2-carboxamide]	≥ 1000
CN(C(=O)c1nc2ccccc2[nH]1)C1CCCC1 [Compound 51, N-cyclopentyl-N-methyl-1H-benzo[d]imidazole-2-carboxamide]	≥ 1000
Cc1ccc2[nH]c(C(=O)N(C)C3CCCC3)nc2n1 [Compound 52, N-cyclopentyl-N,5-dimethyl-1H-imidazo[4,5-b]pyridine-2-carboxamide]	≥ 1000
Cc1ccc2[nH]c(C(=O)N(C)C3CC4CC4C3)nc2c1 (stereo not shown) [Compound 53, N-(bicyclo[3.1.0]hexan-1H-benzo[d]imidazole-2-carboxamide]	≥ 1000
CN(C(=O)c1cc2ccccc2[nH]1)C1CCCC1 [Compound 54, N-cyclopentyl-N-methyl-1H-indole-2-carboxamide]	≥ 1000
CN(C(=O)C1Cc2ccccc2N1)C1CCCC1 (stereo not shown) [Compound 55, N-cyclopentyl-N-methylindoline-2-carboxamide]	≥ 1000
CN(C(=O)c1nc2ccccc2o1)C1CCCC1 [Compound 56, N-cyclopentyl-N-methylbenzo[d]oxazole-2-carboxamide]	≥ 1000
CC(C)c1c[nH]c(C(=O)N(C)C2CCCC2)n1 [Compound 57, N-cyclopentyl-4-isopropyl-N-methyl-1H-imidazole-2-carboxamide]	≥ 1000
CN(C(=O)c1nc2c([nH]1)CCCC2)C1CCCC1 [Compound 58, N-cyclopentyl-N-methyl-4,5,6,7-tetrahydro-1H-benzo[d]imidazole-2-carboxamide]	≥ 1000
Cc1nc(C(=O)N(C)C2CCCC2)[nH]c1C [Compound 59, N-cyclopentyl-N,4,5-trimethyl-1H-imidazole-2-carboxamide]	≥ 1000
CN(C(=O)c1nc2c([nH]1)C(=O)CCC2)C1CCCC1 [Compound 61, N-cyclopentyl-N-methyl-7-oxo-4,5,6,7-tetrahydro-1H-benzo[d]imidazole-2-carboxamide]	≥ 1000
COCCN(C(=O)c1nc2cc(C)ccc2[nH]1)C1CCCC1 [Compound 62, N-cyclopentyl-N-(2-methoxyethyl)-5-methyl-1H-benzo[d]imidazole-2-carboxamide]	101 to 500

Source: US20260265195A1, “SARM1 MODULATORS, PREPARATIONS, AND USES THEREOF” (SIRONAX LTD, priority 2022, published 2026)
